Read-outs that look alike come from different tables or passages of the source.
Key:
SMN Tudor domain = biological target: T1, SMN Tudor domain (Homo sapiens, UniProt Q16637); test: ITC binding to Tudor domain of SMN
T1 construct: SMN (aa 82–147); His (N, cleaved yes); made in house; host or cells: E. coli BL21 (DE3) Codon plus RIL
Text: (§1) The coding DNA fragments of following Tudor domains were cloned into pET28-MHL vector: SMN (aa 82–147), UHRF1 (aa 126–285), SMNDC1 (aa 53–130), TDRD3 (aa 554–611), SND1 (aa 650–910), TDRD2 (aa 327–420), FXR1 (aa 2–132), PHF1 (aa 28–87), SGF29 (aa 115–293), JMJD2A (aa 897–1101), 53BP1 (aa 1483–1606), SETDB1 (aa 190–410), LBR (aa 1–67), ZGPAT (aa 120–271). The coding regions of chromodomain of CBX7 (aa 8–62), PWWP domain of DNMT3A (aa 275–417), WD40 repeats of WDR5 (aa 24–334) and CW domain of ZCWPW2 (aa 21–78) were also subcloned into pET28-MHL vector to generate N-terminally His-tagged fusion protein. The MBT repeats of L3MBTL1 (aa 200–522) and L3MBTL2 (aa 170–625) were subcloned into pET28GST-LIC vector to generate N-terminally GST-His-tagged fusion protein. All the plasmids were generated by ligase independent cloning (Vazyme Biotech, C112 or ABclonal Technology, RK21020). […] The proteins were further purified by Superdex75 or Superdex200 gel-filtration column (GE Healthcare) in a buffer containing 20 mM Tris-HCl, pH 7.5, 150 mM NaCl and 1 mM DTT. For crystallization experiments, purified proteins were concentrated to 18 mg/mL for SMN, 23 mg/mL for UHRF1 and 10 mg/mL for TDRD3 in the gel-filtration buffer. All the mutations were introduced with the QuikChange II XL site-directed mutagenesis kit (Stratagene, 200522) and confirmed by DNA sequencing. Mutant proteins were also expressed in E. coli BL21 (DE3) Codon plus RIL and purified using the same procedures described above. The molecular weight of all protein samples was measured by mass spectrometry.
(§2) For the ITC measurement, the concentrated proteins were diluted into 20 mM Tris-HCl, pH 7.5, 150 mM NaCl (ITC buffer); the lyophilized compounds were dissolved in the same buffer, and the pH value was adjusted by adding 2 M NaOH or 2 M HCl. The compounds that could not be dissolved in the ITC buffer were dissolved in DMSO with the accessible highest concentration. Compound concentrations were calculated from the mass and the volume of the solvent. For the ITC assay with compound dissolved in DMSO, the protein was diluted by ITC buffer containing same final concentration of DMSO. All measurements were performed in duplicate at 25 °C, using a VP-ITC (MicroCal, Inc.), an iTC-200 (MicroCal, Inc.), or a Nano-ITC (TA, Inc.) microcalorimeter. The protein with a concentration of 50–100 μM was placed in the cell chamber, and the compounds with a concentration of 0.5–2 mM in syringe was injected in 25, 20, or 20 successive injections with a spacing of 180, 150, or 120 s for VP-ITC, iTC-200, or Nano-ITC, respectively, as previously described[30]–[32]. iTC-200 or Nano-ITC data were consistent with those from the VP-ITC instrument, based on ITC results of SMN-compound 1 detected by using all the instruments. Control experiments were performed under identical conditions to determine the heat signals that arise from injection of the compounds into the buffer. Data were fitted using the single-site binding model within the Origin software 7.0 package (MicroCal, Inc.) or the independent model within the Nano-Analyze software package (TA, Inc.).

[1] = biological target: T2, UHRF1 tandem Tudor domain (TTD) (Homo sapiens, UniProt Q96T88); test: ITC binding to tandem Tudor domain of UHRF1
T2 construct: UHRF1 (aa 126–285); His (N, cleaved yes); made in house; host or cells: E. coli BL21 (DE3) Codon plus RIL
T2 sequence (Q96T88 126-285): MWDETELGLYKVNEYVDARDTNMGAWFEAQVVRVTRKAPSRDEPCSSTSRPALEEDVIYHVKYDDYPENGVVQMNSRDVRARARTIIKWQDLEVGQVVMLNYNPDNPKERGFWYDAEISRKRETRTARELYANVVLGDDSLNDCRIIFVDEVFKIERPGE
Text: as §1, §2

SMN = biological target: T3, SMN (Homo sapiens, UniProt Q16637); test: Biotin-Cmpd 1 pulldown from U2OS cell lysates and western blotting, SMN; type: binding; settings: U2OS cell lysate, 20 μM biotin-Cmpd 1, overnight 4 °C (Fig. 2c, Supplementary Fig. 6)
T3 construct: endogenous in cells; host or cells: U2OS
Experimental: (§3) U2OS cells were lysed in RIPA buffer (140 mM NaCl, 10 mM Tris-HCl, pH 7.6, 1% Triton, 0.1% sodium deoxycholate, 1 mM EDTA) containing protease inhibitors (Roche, 05892791001). The cell lysate was incubated with 20 μM biotin-Cmpd 1 overnight at 4 °C, then 30 μL streptavidin beads (Thermo Fisher, 20353) was added and incubated at 4 °C for 1 h. The beads were then washed with RIPA buffer for 3 times, 10 min/time and loading buffer was added and boiled for 5 min for elution. The eluted samples were separated by SDS-PAGE for western blotting (SMN monoclonal antibody, BD Transduction Laboratories, 610646, clone No. 8, dilution of 1:1000; TDRD3 rabbit monoclonal antibody, Cell signaling, 5492, clone No. 5492, dilution of 1:1000; SND1 polyclonal antibody, Bethyl, A302-883A, dilution of 1:2000; RFP polyclonal antibody, Abcam, ab62341, dilution of 1:1000; GFP monoclonal antibody, Santa Cruz Biotechnology, sc-9996, dilution of 1:1000; Streptavidin-Horseradish Peroxidase (HRP), Invitrogen, SA10001, dilution of 1:5000) as previously described[52],[53]. For the competition analysis, 200 μM biotin-free compound 1 or compound 15 was added at the same time when the biotin-Cmpd 1 was incubated with the cell lysates.

TDRD3 = TDRD3 (Homo sapiens, UniProt Q9H7E2); test: Biotin-Cmpd 1 pulldown from U2OS cell lysates and western blotting, TDRD3; type: binding; parameters: endogenous in cells; host or cells: U2OS; settings: U2OS cell lysate, 20 μM biotin-Cmpd 1 (Fig. 2c, Supplementary Fig. 6)
Experimental: as §3

SND1 = biological target: T4, SND1 (Homo sapiens, UniProt Q7KZF4); test: Biotin-Cmpd 1 pulldown from U2OS cell lysates and western blotting, SND1; type: binding; settings: U2OS cell lysate, 20 μM biotin-Cmpd 1 (Fig. 2c, Supplementary Fig. 6)
T4 construct: endogenous in cells; host or cells: U2OS
Experimental: as §3

SMN cage mutants = test: Biotin-Cmpd 1 pulldown from U2OS cell lysates, SMN cage mutants; type: binding, human; settings: U2OS cell lysate, 20 μM biotin-Cmpd 1 (Fig. 2d)
Experimental: as §3

[2] = biological target: R1810me2s-POLR2A (Homo sapiens) (UniProt P24928); settings: cited from earlier work
[3] = ITC, Tudor domain of SMN wild type, 25 °C, read-out: Kd (SMN)
[4] = ITC, Tudor domain of SMN wild type, 25 °C
[5] = Supplementary Fig. 12, read-out: Kd, binding affinity (determined by ITC) of different compounds to SMN

T4 sequence (Q7KZF4 whole entry): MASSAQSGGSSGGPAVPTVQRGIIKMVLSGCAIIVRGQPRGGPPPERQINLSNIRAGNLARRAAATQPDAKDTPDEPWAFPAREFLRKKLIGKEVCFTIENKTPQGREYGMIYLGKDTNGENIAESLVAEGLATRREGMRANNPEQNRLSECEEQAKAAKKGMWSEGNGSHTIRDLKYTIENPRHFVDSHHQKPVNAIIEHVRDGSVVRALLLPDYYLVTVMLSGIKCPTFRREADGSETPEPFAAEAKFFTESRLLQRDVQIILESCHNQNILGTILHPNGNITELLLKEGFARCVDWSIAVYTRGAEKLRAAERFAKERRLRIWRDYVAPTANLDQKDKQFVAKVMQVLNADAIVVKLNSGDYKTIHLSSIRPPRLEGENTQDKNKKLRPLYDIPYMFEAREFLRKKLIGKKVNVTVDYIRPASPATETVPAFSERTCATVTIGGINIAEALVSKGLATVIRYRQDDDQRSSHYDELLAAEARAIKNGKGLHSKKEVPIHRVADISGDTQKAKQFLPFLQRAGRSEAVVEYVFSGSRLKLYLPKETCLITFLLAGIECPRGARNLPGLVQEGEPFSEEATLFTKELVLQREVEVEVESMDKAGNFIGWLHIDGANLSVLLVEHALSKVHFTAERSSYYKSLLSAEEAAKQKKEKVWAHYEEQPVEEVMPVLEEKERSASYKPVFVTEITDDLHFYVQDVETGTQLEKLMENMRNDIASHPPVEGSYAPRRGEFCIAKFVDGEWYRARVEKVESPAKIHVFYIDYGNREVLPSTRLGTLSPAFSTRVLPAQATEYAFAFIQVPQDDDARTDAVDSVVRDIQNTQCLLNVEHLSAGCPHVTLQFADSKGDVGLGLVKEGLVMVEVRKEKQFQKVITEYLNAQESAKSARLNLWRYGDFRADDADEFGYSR
Chain of TDRD3 (Q9H7E2 whole entry): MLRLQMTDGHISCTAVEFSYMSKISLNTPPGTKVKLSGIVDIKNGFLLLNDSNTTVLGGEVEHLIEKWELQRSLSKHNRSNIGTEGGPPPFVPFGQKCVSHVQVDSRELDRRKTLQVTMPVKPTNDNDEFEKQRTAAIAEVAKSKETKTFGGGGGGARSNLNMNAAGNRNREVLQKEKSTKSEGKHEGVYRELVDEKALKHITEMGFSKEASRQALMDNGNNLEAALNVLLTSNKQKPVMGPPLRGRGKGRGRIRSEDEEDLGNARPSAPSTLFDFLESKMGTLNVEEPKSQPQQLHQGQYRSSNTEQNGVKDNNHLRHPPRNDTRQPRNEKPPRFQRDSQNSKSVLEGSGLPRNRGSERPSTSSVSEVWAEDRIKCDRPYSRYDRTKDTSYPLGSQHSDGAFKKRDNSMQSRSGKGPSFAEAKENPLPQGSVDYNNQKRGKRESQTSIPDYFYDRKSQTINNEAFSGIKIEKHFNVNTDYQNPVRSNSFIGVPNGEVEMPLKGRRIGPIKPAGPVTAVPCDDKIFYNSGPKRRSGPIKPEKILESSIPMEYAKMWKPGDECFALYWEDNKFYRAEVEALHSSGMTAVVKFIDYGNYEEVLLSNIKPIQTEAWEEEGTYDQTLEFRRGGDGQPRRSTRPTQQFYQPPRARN

Compound | Kd (UHRF1) [1] | Kd (SMN) (SMN Tudor domain; [4]) | Kd (SMN Tudor domain; [5]) [µM] | also measured
CCOC(=O)Cn1c2c(c(=N)c3c1CCC3)CCC2 [Compound 3, ethyl 2-(8-imino-2,3,5,6,7,8-hexahydrodicyclopenta[b,e]pyridin-4(1H)-yl)acetate] | No binding |  |  | Kd (SMN Tudor domain; [3]): 31 ± 2 µM
N=c1c2c(n(Cc3ccc(F)cc3)c3c1CCC3)CCC2 [Compound 4, 4-(4-fluorobenzyl)-2,3,4,5,6,7-hexahydrodicyclopenta[b,e]pyridin-8(1H)-imine] | No binding |  |  | Kd (SMN Tudor domain; [3]): 13 ± 1 µM
CCCCc1c(CCC)c(=N)c2ccccc2n1C [Compound 5, 2-butyl-1-methyl-3-propylquinolin-4(1H)-imine] | No binding |  |  | Kd (SMN Tudor domain; [3]): 12 ± 1 µM
Cc1cc(=N)c2ccccc2n1C [Compound 6, 1,2-dimethylquinolin-4(1H)-imine] | Weak binding |  |  | Kd (SMN Tudor domain; [3]): 12 ± 2 µM
Nc1cccc2ocnc12 [Compound 7, benzo[d]oxazol-4-amine] | No binding | No binding | > 244 | 
Nc1cccc2cccnc12 [Compound 8, quinolin-8-amine] | No binding | No binding |  | Kd (SMN Tudor domain): > 244 µM
CN[C@@H]1CCc2ccccc21 [Compound 9, (R)-N-methyl-2,3-dihydro-1H-inden-1-aminium] | No binding | No binding | > 244 | 
C[C@H]1Cc2ccccc2[C@@H]1N [Compound 10, (1R,2S)-2-methyl-2,3-dihydro-1H-inden-1-aminium] | No binding | No binding | > 244 | 
NC[C@H]1CCc2ccccc21 [Compound 11, (S)-(2,3-dihydro-1H-inden-1-yl)methanaminium] | No binding | No binding | > 244 | 
Nc1cccc2ccsc12 [Compound 12, benzo[b]thiophen-7-amine] | No binding | No binding | > 244 | 
C[C@H]1CCc2ccccc2[C@@H]1N [Compound 13, (1R,2S)-2-methyl-1,2,3,4-tetrahydronaphthalen-1-aminium] | No binding | No binding | > 244 | 
C[C@H]1CC[C@@H](N)c2ccccc21 [Compound 14, (1R,4S)-4-methyl-1,2,3,4-tetrahydronaphthalen-1-aminium] | No binding | No binding | > 244 | 
CN1CC[C@H](N)c2ccccc21 [Compound 15, (S)-1-methyl-1,2,3,4-tetrahydroquinolin-4-aminium] | No binding | No binding | > 244 | 
CN1CC[C@H](CN)c2ccccc21 [Compound 16, (S)-(1-methyl-1,2,3,4-tetrahydroquinolin-4-yl)methanaminium] | No binding | No binding | > 244 | 
N=C(N)N1CCC(Cc2ccccc2)CC1 [Compound 17, 4-benzylpiperidine-1-carboximidamide] | No binding | No binding | > 244 | 
CCN(CC)c1ccc(C(=N)N)cc1 [Compound 18, 4-(diethylamino)benzimidamide] | No binding | No binding | > 244 | 
N=C(N)c1ccc(N)cc1 [Compound 19, 4-aminobenzimidamide] | No binding | No binding | > 244 | 
Cn1ccc(=N)cc1 [Compound 20, 1-methylpyridin-4(1H)-imine] | No binding | No binding | > 244 | 
N=c1c2c(n(CC(=O)NCCOCCOCCOCCNC(=O)CCCC[C@@H]3SC[C@@H]4NC(=O)N[C@@H]43)c3c1CCC3)CCC2 [biotin-Cmpd 1] |  |  |  | pulldown of SMN from cell lysates (SMN): efficiently captured; pulldown of SMN from cell lysates (SMN; listed as Biotin-Cmpd 1): selectively chemiprecipates SMN; pulldown of TDRD3 from cell lysates (TDRD3): neither TDRD3 nor SND1 could be detected; Kd (SMN Tudor domain; Supplementary Figs. 2, 4 and 11a (VP-ITC), read-out: Kd, ITC binding curve, Tudor domain of SMN): 87 ± 12 µM; pulldown of SND1 from cell lysates (SND1): neither TDRD3 nor SND1 could be detected; pulldown of SMN cage mutants from cell lysates (SMN cage mutants): could not efficiently pull down
SMN Tudor (from UniProt Q16637) |  |  |  | Kd [2]: 175 µM

Reference: PMC9481570, “A small molecule antagonist of SMN disrupts the interaction between SMN and RNAP II” (Nature Communications, 2022)
